The results in this text go back to patent publication US20250268844A1, “ANTICANCER AGENTS BASED ON CYCLOPENTENONES” (UNIVERSITY OF CRETE, priority 2022, published 2025).

The test system of test [1] is SKOV3 ovarian carcinoma cells. Nature of the test: MTT conversion assay, SKOV3. The format is cell-based, human. The following applies: Homo sapiens, SK-OV-3, 48 hrs treatment. The procedure:
(§1) In particular, Enone-1 and Enone-2 were tested for cytotoxic activity in 17 cell lines representing a broad spectrum of human tumors. They include human colorectal carcinoma (Caco2, RKO, HCT15, HT29), liver (HepG2), lung (A549), ovarian carcinoma (A2780, 2780CP, AGE60, SKOV3), anaplastic large cell lymphoma (Mac1 and Mac2a), breast carcinoma (MDA-MB-231), cervical (HeLa), bladder cancer (VM-CUB-1), melanoma (BRO), and multiple myeloma (MR20).
(§2) Each assay was performed in triplicate and repeated in 2-3 independent experiments. Specifically, to measure cell survival, 20 μl of 10 mg/ml MTT (3-([…])-2,5-diphenyl tetrazolium bromide; Sigma) was added to each well and the plates were incubated at 37° C. in 5% CO2 for 3 hours. The supernatant was removed and the formed crystals were dissolved in 200 μl dimethyl sulphoxide. The plates were then analysed at 450 nm on a plate reader. Growth inhibition (reduction in survival) was calculated by expressing the differences in optical densities between treatment wells and control wells as a percentage of the control.
In general terms: Formazan colour is commonly taken as a measure of viable cells.

The subject of test [2] is RKO colorectal carcinoma cells. Nature of the test: MTT conversion assay, RKO. The format is cell-based, human. The note with it: Homo sapiens, colon, 48 hrs treatment. The procedure: as §1, §2
In test [3] the test system is Mac1 anaplastic large cell lymphoma cells. The experiment in a line: MTT conversion assay, Mac1. The note with it: Homo sapiens, Mac1, ALCL, 48 hrs treatment. Format: cell-based. The procedure: as §1, §2
For test [4], the system named is Mac2a anaplastic large cell lymphoma cells. The experiment in a line: MTT conversion assay, Mac2a. The format is cell-based. The following applies: Homo sapiens, ALCL, 48 hrs treatment. The procedure:
as §1, §2

Test [5] has as its system MR20 multiple myeloma cells. The experiment in a line: MTT conversion assay, MR20. The format is cell-based, human. The following applies: Homo sapiens, Multiple myeloma cell, 48 hrs treatment. The procedure: as §1, §2
Test [6] concerns VM-CUB-1 bladder cancer cells. Nature of the test: MTT conversion assay, VM-CUB-1. The format is cell-based, human. The note with it: Homo sapiens, 48 hrs treatment. The procedure:
as §1, §2

In test [7] the test system is A2780 ovarian cancer cells. The experiment in a line: PrestoBlue cell viability assay. The following applies: Homo sapiens, 72 hrs treatment, n=3 experiments. The format is cell-based, human. The procedure: The effects of Enone-1 and Enone-2 on cancer cells were confirmed using a second methodology, namely the PrestoBlue assay (PrestoBlue™ Cell Viability Reagent, Thermo Fisher, Catalog number: A13261), a cell permeable resazurin-based solution that functions as a cell viability indicator. A2780 ovarian cancer cells were plated as described above for the MTT assays and Enone drugs were added at increasing concentrations as indicated in FIG. 2. Cell viability was determined 72 hrs later following the addition of PrestoBlue, according to the manufacturer's instructions (Thermo Fisher).

The test system of test [8] is A2780 ovarian carcinoma cells. The experiment in a line: Cell cycle analysis by propidium iodide flow cytometry. Format: cell-based, human. The following applies: 2.5 μM or 5 μM for 24 hours. The procedure: The effect of Enone-2 on cell cycle progression was tested to determine if it causes cell cycle arrest, in addition to inducing cell death. To this end, A2780 ovarian carcinoma cells were treated with 2.5 μM or 5 μM Enone-2 for 24 hours, cells were detached, fixed in 1% Neutral Buffered Formalin and stained with 5 μg/ml propidium iodide. Cell suspensions were next analyzed for fluorescence intensities (DNA content) by quantitative flow cytometry.

The subject of a further test is CDC6. The experiment in a line: CDC6 protein (immunoblot) and RNA (RT-qPCR) levels in A2780 cells. Format: cell-based, human. The note with it: 2.5 μM for 6 or 14 hours. The procedure:
FIG. 4. Effects of Enone-2 on cell cycle and on the expression levels of replication licensing factors (RLF). (A) Representative cell cycle profiles showing progressive accumulation of A2780 ovarian carcinoma cells in the G2/M phase of the cell cycle following 24 hour treatment with 2.5 or 5 μM Enone-2. Quantification of results is shown in the form of pie charts on the right. PI: propidium iodide. (B) & (C) A2780 cells were treated with 2.5 μM Enone-2 for 6 or 14 hours and analyzed for CDC6 protein levels by immunoblot (B), or RNA levels by reverse transcription qPCR (C). The RNA levels of the RLF CDT1 were also measured by qPCR (C). ***P<0.001; **P<0.01.
Replication licensing factors (RLF) such as CDC6, MCM2-MCM7, ORC and CDT1 form origins of DNA replication in the G1 phase of the cell cycle and initiate DNA replication during the S phase. CDC6 is also involved in S-M checkpoint mechanisms that ensure that the entire genome is replicated just once per cell division. Cancer cells frequently display deregulated expression of RLFs; for example, CDC6 is over-expressed in colorectal and ovarian carcinoma and is associated with poor patient prognosis. […] Because of these characteristics, RLFs are considered as novel targets for anti-cancer therapy. […]
For orientation: A western blot detects proteins with antibodies after separation by electrophoresis.

The subject of test [9] is MB49 mouse bladder carcinoma tumors. Nature of the test: Subcutaneous MB49 tumor growth in C57BL/6 mice. The format is in vivo. The following applies: C57BL/6 female mice; 5 mg/kg intratumorally on days 7, 10, 14 and 20; vs saline. The procedure: The in vivo anti-tumor effect of Enones was determined by xenotransplantation of MB49 mouse bladder carcinoma cells in syngeneic, immunocompetent C57BL/6 female mice.
On this basis, the in vivo anti-tumor activity of Enone-2 was tested. Female mice were transplanted subcutaneously with 10^6 MB49 cells which formed tumors of approx. 40-60 mm^2 size by day 7. Mice were randomly separated in 2 groups of 5 animals each and injected intratumorally with 50 μl Enone-2 to achieve 5 mg/kg drug dose on days 7, 10, 14 and 20. The tumor size was monitored using a digital caliper and expressed in mm^2 by multiplying the length (the longest diameter) with the width (the shortest diameter perpendicular to length) of the tumor.

Test [10] deals with A2780 ovarian carcinoma cells. The experiment in a line: Gene expression profiling (RNAseq) of A2780 cells. The format is cell-based, human. An excerpt: FIG. 7: Schematic representation of KEGG p53 pathway-related genes and their cellular roles.
Activation of p53 occurs in response to DNA damage (so called “DNA damage response”, DDR) or ribosomal stress (RS) and conveys signals that arrest cell cycle and induce cell death.
This group entailed the following gene transcripts: ZFAND2A; KCTD10; MDM2; PLK2; DDIT3; DNAJB9; PSMD6; RYBP; PSMD10; SPSB3; PSMB8; PELI1; RNF103; DNAJB2; UBE2H; ATXN3; PSEN1; RCHY1; UBR1; ANAPC16; JKAMP; DDA1; PSMA6; TMUB2; TRIM72; SPOPL; UBE2J1; ARIH1; NPLOC4; CDC26; USP19; UFD1; TNFAIP1; PSMB6; DERL1; UBE2V2; SELENOS; PSMA1; UBE2.

Turning to `C[C@@]1(O)C=CC(=O)[C@H]1c1ccc(F)c2ccccc12` (stereo in doubt) [Enone-2, 5-(4-fluoronaphthalen-1-yl)-4-hydroxy-4-methylcyclopent-2-en-1-one], the IC50 in test [1] came out at 300 nM; in test [2], 1200 nM; in test [3], 1800 nM; in [4] it was 2300 nM; in [5], 100 nM; in test [6], 800 nM. Further, the IC50 in [7] worked out at 120 nM. Moreover, the “cell cycle progression (DNA content)” value in [8] was “accumulation of cells in the G2/M phase of the cell cycle in a concentration dependent manner”. Further, the “CDC6 RNA and protein levels” value with CDC6 is “reduce the key RLF CDC6 in a time-dependent manner at both RNA and protein levels”. Also, the “subcutaneous tumor growth (tumor size)” value in test [9] is reported as “arrested tumor growth”. In addition, the “transcripts of proteasome-mediated ubiquitin-dependent protein catabolic process” value in [10] (2.5 μM for 6 hours, bioinformatic analysis) is “enrichment of up-regulated transcripts”. Also, the “p53 pathway activation (gene expression profiling)” value in [10] (2.5 μM for 6 hrs or 14 hrs) is “activation of the p53 pathway”.

Broadly, the IC50 is the concentration that inhibits the measured activity by half.
